For assay [1], the system named is AMARE. Nature of the assay: Pre-emergence herbicidal action against AMARE. The assay is classed as in vivo, Amaranthus retroflexus. Put shortly:
(§1)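 Herbicidal effect was assessed 3 weeks after treatment by visual comparison with untreated controls, 100% denoting dead plants. Aqueous WP or EC preparations had been applied at 600 to 800 l/ha with 0.2% wetting agent to the soil covering freshly sown seeds.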

Assay [2] concerns SETVI. Nature of the assay: Post-emergence herbicidal action against SETVI. Format: in vivo, Setaria viridis. The following applies: dosage 20 g/ha. Put shortly:
(§2)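 Post-emergence greenhouse test; one-leaf stage, 2–3 wk post-sowing, sandy loam. Foliar spray of WP/EC in water, 600–800 l/ha, +0.2% wetting agent. Visual % action at ~3 wk vs untreated (100% = plants dead).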

Assay [3] relates to DIGSA. Nature of the assay: Pre-emergence herbicidal action against DIGSA. Format: in vivo, Digitaria sanguinalis. Put shortly:
as §1

Assay [4] relates to MATIN. Nature of the assay: Post-emergence herbicidal action against MATIN. Format: in vivo, Matricaria inodora. Put shortly: as §2
For assay [5], the system named is SETVI. Nature of the assay: Pre-emergence herbicidal action against SETVI. Format: in vivo, Setaria viridis. The following applies: dosage 80 g/ha. The essentials:
as §1

For assay [6], the system named is PHBPU. Nature of the assay: Post-emergence herbicidal action against PHBPU. The assay is classed as in vivo, Pharbitis purpurea. The following applies: dosage 20 g/ha. Put shortly: as §2
Assay [7] has as its system VERPE. Nature of the assay: Post-emergence herbicidal action against VERPE. The assay is classed as in vivo, Veronica persica. The essentials: as §2
Assay [8] deals with ECHCG. Nature of the assay: Post-emergence herbicidal action against ECHCG. Format: in vivo, Echinochloa crus-galli. Put shortly: as §2
Assay [9] concerns VIOTR. Nature of the assay: Pre-emergence herbicidal action against VIOTR. Format: in vivo, Viola tricolor. The note with it: dosage 80 g/ha. Put shortly:
as §1

The subject of assay [10] is ABUTH. Nature of the assay: Post-emergence herbicidal action against ABUTH. The assay is classed as in vivo, Abutilon theophrasti. The note with it: dosage 20 g/ha, visual assessment about 3 weeks after treatment vs untreated controls. Put shortly:
as §2

Assay [11] relates to ALOMY. Nature of the assay: Pre-emergence herbicidal action against ALOMY. Format: in vivo, Alopecurus myosuroides. The following applies: 80 g/ha, pre-emergence, scored visually after 3 weeks vs untreated controls (100% = plants have died, 0% = like control plants). The essentials: as §1
Assay [12] has as its system AVEFA. Nature of the assay: Pre-emergence herbicidal action against AVEFA. Format: in vivo, Avena fatua. The essentials: as §1
Assay [13] relates to PHBPU. Nature of the assay: Pre-emergence herbicidal action against PHBPU. Format: in vivo, Pharbitis purpurea. The note with it: dosage 80 g/ha. The essentials:
as §1

The subject of assay [14] is MATIN. Nature of the assay: Pre-emergence herbicidal action against MATIN. The assay is classed as in vivo, Matricaria inodora. Put shortly: as §1
Assay [15] relates to DIGSA. Nature of the assay: Post-emergence herbicidal action against DIGSA. Format: in vivo, Digitaria sanguinalis. The following applies: 20 g/ha. Put shortly: as §2
In assay [16] the test system is VIOTR. Nature of the assay: Post-emergence herbicidal action against VIOTR. Format: in vivo, Viola tricolor. Put shortly:
as §2

Assay [17] has as its system ECHCG. Nature of the assay: Pre-emergence herbicidal action against ECHCG. The assay is classed as in vivo, Echinochloa crus-galli. The essentials:
as §1

Assay [18] relates to ABUTH. Nature of the assay: Pre-emergence herbicidal action against ABUTH. The assay is classed as in vivo, Abutilon theophrasti. The following applies: for Pre-emergence action against ABUTH (herbicidal activity): 80 g/ha, scored visually after 3 weeks vs untreated controls (100% = plants have died, 0% = like control plants). The essentials: as §1
Assay [19] concerns ALOMY. Nature of the assay: Post-emergence herbicidal action against ALOMY. Format: in vivo, Alopecurus myosuroides. The note with it: dosage 20 g/ha, visual assessment about 3 weeks after treatment vs untreated controls. The essentials: as §2
For assay [20], the system named is VERPE. Nature of the assay: Pre-emergence herbicidal action against VERPE. The assay is classed as in vivo, Veronica persica. The following applies: dosage 80 g/ha. Put shortly:
as §1

Assay [21] deals with AMARE. Nature of the assay: Post-emergence herbicidal action against AMARE. Format: in vivo, Amaranthus retroflexus. The note with it: 20 g/ha, visual assessment about 3 weeks after treatment, 100% = plants have died, 0% = like control plants. Put shortly:
as §2

The subject of assay [22] is POLCO. Nature of the assay: Pre-emergence herbicidal action against POLCO. The assay is classed as in vivo, Polygonum convolvulus. The following applies: dosage 80 g/ha. The source says:
Seeds of monocotyledonous and dicotyledonous weed plants and crop plants are laid out in sandy loam soil in wood-fiber pots and covered with soil. The compounds of the invention, formulated in the form of wettable powders (WP) or as emulsion concentrates (EC), are then applied to the surface of the covering soil in the form of an aqueous suspension or emulsion at a water application rate equivalent to 600 to 800 l/ha, with addition of 0.2% wetting agent. After the treatment, the pots are placed in a greenhouse and kept under good growth conditions for the trial plants. The damage to the test plants is scored visually after a test period of 3 weeks by comparison with untreated controls (herbicidal activity in percent (%): 100% activity=the plants have died, 0% activity=like control plants). […] The tables below illustrate, in an illustrative manner, the post-emergence herbicidal action of the compounds of the invention, the herbicidal activity being stated in percent.

The mark [23] stands for this setting: 20 g/ha, scored visually after 3 weeks vs untreated controls, 100% = plants have died, 0% = like control plants.
The mark [24] stands for this setting: 80 g/ha, scored visually after 3 weeks vs untreated controls (100% = plants have died, 0% = like control plants).

Regarding `CC(NC(=O)c1c(C(F)(F)F)ccc(C(=O)Nc2nnnn2C)c1Cl)C1CC1` (stereo not shown) [Example 1-135], the “Pre-emergence action against AMARE in %” value in assay [1] (setting [23]) and in assay [1] (setting [24]) was 100% in each case. Besides, the “Post-emergence action against SETVI in %” value in assay [2] is recorded as 80%. For the same molecule, the “Pre-emergence action against DIGSA in %” value in [3] (dosage 20 g/ha) is recorded as 90%; in assay [3] (dosage 80 g/ha), 100%. Moreover, the “Post-emergence action against MATIN in %” value in assay [4] (dosage 5 g/ha) is recorded as 80%; in assay [4] (dosage 20 g/ha), 90%. Besides, in assay [5], the “Pre-emergence action against SETVI in %” value worked out at 100%. Further, in assay [6], the “Post-emergence action against PHBPU in %” value turned out to be 90%. Further, the “Post-emergence action against VERPE in %” value in assay [7] (5 g/ha) was 80%; in [7] (20 g/ha) it was 90%. Besides, the “Post-emergence action against ECHCG in %” value in assay [8] (dosage 5 g/ha) is 80%; in assay [8] (dosage 20 g/ha), 100%. In [9], the “Pre-emergence action against VIOTR in %” value is recorded as 100%. In assay [10], the “Post-emergence action against ABUTH in %” value worked out at 80%. In [11], the “Pre-emergence action against ALOMY (herbicidal activity)” value worked out at 90%. For the same molecule, the “Pre-emergence action against AVEFA” value in assay [12] (20 g/ha, scored visually after 3 weeks, 100% = plants have died, 0% = like control plants) was 80%. For the same molecule, the “Pre-emergence action against AVEFA in %” value in assay [12] (80 g/ha, pre-emergence) is 100%. For the same molecule, the “Pre-emergence action against PHBPU in %” value in assay [13] is recorded as 80%. The “Pre-emergence action against MATIN in %” value in [14] (dosage 20 g/ha) worked out at 90%; in assay [14] (dosage 80 g/ha) it was 100%. Besides, in [15], the “Post-emergence action against DIGSA” value is 90%. For the same molecule, the “Post-emergence action against VIOTR in %” value in [16] (5 g/ha) is 80%; in assay [16] (20 g/ha), 90%. Further, the “Pre-emergence action against ECHCG in %” value in assay [17] (20 g/ha) is given as 80%; in assay [17] (80 g/ha), 100%. The “Pre-emergence action against ABUTH (herbicidal activity)” value in assay [18] came to 100%. For the same molecule, the “Pre-emergence action against ABUTH (herbicidal activity in percent)” value in assay [18] (dosage 20 g/ha, scored visually after 3 weeks vs untreated controls, 100% = plants have died, 0% = like control plants) is given as 100%. Also, the “Post-emergence action against ALOMY in %” value in assay [19] is recorded as 90%. Besides, in [20], the “Pre-emergence action against VERPE in %” value is reported as 90%. The “Post-emergence action at 20 g/ha against AMARE in %” value in [21] turned out to be 90%.

In the case of `CCn1nnnc1NC(=O)c1ccc(C(F)(F)F)c(C(=O)NCCSC)c1C` [Example 2-35], in assay [1] (setting [24]), the “Pre-emergence action against AMARE in %” value is given as 90%. The “Pre-emergence action against POLCO in %” value in [22] is reported as 80%. Moreover, in assay [14] (dosage 80 g/ha), the “Pre-emergence action against MATIN in %” value came to 80%.

As to `Cc1nnc(NC(=O)c2ccc(C(F)F)c(C(=O)NC3CC3)c2Br)o1` [Example 6-166], the “Pre-emergence action against AMARE in %” value came out at 90% in [1] (setting [23]) and 100% in assay [1] (setting [24]). In assay [2], the “Post-emergence action against SETVI in %” value amounted to 100%. Further, the “Pre-emergence action against DIGSA in %” value stood at 80% in assay [3] (dosage 20 g/ha) and 100% in [3] (dosage 80 g/ha). For the same molecule, in assay [5], the “Pre-emergence action against SETVI in %” value came to 100%. The “Pre-emergence action against POLCO in %” value in assay [22] is listed as 80%. For the same molecule, the “Post-emergence action against ECHCG in %” value turned out to be 80% in assay [8] (dosage 5 g/ha) and 90% in assay [8] (dosage 20 g/ha). For the same molecule, in assay [9], the “Pre-emergence action against VIOTR in %” value is 100%. Further, in [10], the “Post-emergence action against ABUTH in %” value is given as 80%. In addition, in assay [14] (dosage 80 g/ha), the “Pre-emergence action against MATIN in %” value is 100%. Also, in assay [17] (80 g/ha), the “Pre-emergence action against ECHCG in %” value amounted to 80%. Moreover, in [18], the “Pre-emergence action against ABUTH (herbicidal activity)” value is 100%. In addition, the “Post-emergence action at 20 g/ha against AMARE in %” value in assay [21] is 90%.

Take `Cc1nnc(NC(=O)c2ccc(C(F)F)c(C(=O)NCC(F)F)c2Br)o1` [Example 6-169]: the “Pre-emergence action against AMARE in %” value in [1] (setting [23]) came out at 90%; in [1] (setting [24]), 100%. Besides, the “Post-emergence action against SETVI in %” value in assay [2] was found to be 90%. For the same molecule, the “Pre-emergence action against DIGSA in %” value in assay [3] (dosage 80 g/ha) amounted to 90%. Moreover, the “Pre-emergence action against SETVI in %” value in assay [5] was 100%. Besides, in assay [22], the “Pre-emergence action against POLCO in %” value is 100%. Also, the “Post-emergence action against ECHCG in %” value came out at 80% in assay [8] (dosage 5 g/ha) and 90% in [8] (dosage 20 g/ha). For the same molecule, the “Pre-emergence action against MATIN in %” value in [14] (dosage 80 g/ha) came out at 80%. The “Pre-emergence action against ECHCG in %” value in [17] (80 g/ha) was found to be 90%. In addition, the “Pre-emergence action against ABUTH (herbicidal activity)” value in assay [18] amounted to 90%. For the same molecule, the “Post-emergence action at 20 g/ha against AMARE in %” value in assay [21] amounted to 90%.

The record behind these values is US12655116B2, “Substituted isophthalic acid diamides” (Bayer Aktiengesellschaft, priority 2020, dated 2026).
